Test results reported in US5494895A, “Scorpion peptide margatoxin with immunosuppressant activity” (Merck & Co., Inc., priority 1993, dated 1996).
Peptide text beside a SMILES is read from it.

What was measured:
[1] = target: T1, Kv 1.3 of human T lymphocytes (Homo sapiens, UniProt P22001); assay: [125I]ChTX binding to human T cells
T1 construct: endogenous in cells; host or cells: purified human peripheral blood T lymphocytes
Procedure: In addition to being tested for competition for [^125 I]ChTX binding to rat brain and bovine aortic smooth muscle, MgTX was evaluated for its effects on [^125 I]ChTX binding to human T lymphocytes and to plasma membranes prepared from Jurkat cells, a human T-cell leukemia line. MgTX competition for [^125 I]ChTX binding to human T cells was performed as described by Lin, et al., J. Exp. Med. 177, 637-645, 1993. Binding experiments using monocyte-depleted, E-rosetted human T cells were carried out in isotonic sucrose with 5 mM KCl, 5 mM NaCl, 6 mM glucose and 10 mM HEPES, pH 8.0 until equilibrium was achieved. The procedure for binding to plasma membranes from Jurkat Cells is similar except that the binding solution was 3 mM KCl, 7 mM NaCl, 10 mM HEPES, pH 8.0. Free ligand was removed from bound by filtration through Whatman GF/C glass fiber filters (pretreated with 0.5% polyethylenimine). […] Hill coefficients were 2 in both cases.

Kv 1.3 = target: T2, Kv 1.3 (Rattus norvegicus, UniProt P15384); assay: [125I]ChTX binding to rat brain synaptic plasma membrane vesicles; conditions: low ionic strength (50 mM NaCl, 20 mM Tris-HCl, pH 7.4)
T2 construct: from tissue; host or cells: rat brain synaptic plasma membrane vesicles
T2 sequence (P15384 whole entry): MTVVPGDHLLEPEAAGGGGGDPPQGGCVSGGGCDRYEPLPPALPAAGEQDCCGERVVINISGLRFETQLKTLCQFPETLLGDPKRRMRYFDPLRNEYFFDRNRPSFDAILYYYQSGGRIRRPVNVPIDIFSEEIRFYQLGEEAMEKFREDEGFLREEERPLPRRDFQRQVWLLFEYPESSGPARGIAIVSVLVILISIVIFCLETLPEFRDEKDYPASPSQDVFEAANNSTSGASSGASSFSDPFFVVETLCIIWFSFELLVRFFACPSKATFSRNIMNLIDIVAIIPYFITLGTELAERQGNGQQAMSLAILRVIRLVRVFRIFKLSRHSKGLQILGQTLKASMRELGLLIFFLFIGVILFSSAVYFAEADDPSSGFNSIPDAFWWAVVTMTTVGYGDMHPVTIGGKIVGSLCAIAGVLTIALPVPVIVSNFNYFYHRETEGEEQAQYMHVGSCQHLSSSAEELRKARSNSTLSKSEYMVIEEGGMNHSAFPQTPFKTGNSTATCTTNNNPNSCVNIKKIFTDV
Procedure: The potency of MgTX as an inhibitor of [^125 I]ChTX binding to Kv 1.3 was evaluated. The binding of [^125 I]ChTX to either rat brain synaptic plasma membrane vesicles (Kv 1.3 channel; Vazquez et al., J. Biol. Chem. 265, 15564, 1990) or bovine aortic smooth muscle sarcolemmal membranes (Maxi-K channel; Vazquez et al., J. Biol. Chem. 264, 20402, 1989) was determined as described. Briefly, membrane vesicles were incubated with [^125 I]ChTX in the presence or absence of other added agents, until equilibrium was achieved. Separation of bound from free ligand was accomplished by filtration through GF/C glass fiber filters (WHATMAN) that had been presoaked in 0.5% polyethyleneimine. Nonspecific binding was determined in the presence of 10 nM unlabeled ChTX. Data from saturation experiments were analyzed in a Scatchard representation to determine Kd and Bmax values. Triplicate samples were obtained for each experimental point and the data were averaged. The standard deviation of the mean was typically less than 2%. […] As an indication of selectivity, MgTX had no effect on [^125 I]ChTX binding to the Maxi-K channel in smooth muscle membranes at concentrations up to 10 nM.

[2] = test system: Kv 3 (rat Kv 1.3; human Kv 1.3); assay: Two-electrode voltage clamp of Xenopus oocytes expressing Kv 3 (Kv 1.3); format: cell-based, rat and human; conditions: read-out: IC50 on cloned channel Kv 3
Procedure: (§1) Ionic currents were also recorded from Xenopus oocytes that had been injected with RNA transcribed in vitro from one or another of the following K^+ channel cDNA clones. Kv 1 (rat Kv 1.5), rat or human Kv 3 (rat Kv 1.3; human Kv 1.3), Kv 4 (rat Kv 3.1 ), rat ISK, Kv 2 (rat Kv 1.6) or Drosophila Shaker-H4. The names of the clones are listed as originally published, with the appropriate parenthetical designation according to the unified gene nomenclature proposed by Chandy. Shaker-H4 is a splice variant from the original Drosophila Shaker K^+ channel gene. Kv 1.3 is the ChTX-sensitive delayed rectifier current found in rat and human T lymphocytes (data from rat and human clones were indistinguishable and were combined) and it is a member of the Shaker family. Kv 1.5 is a channel cloned from rat (Swanson et al., Neuron, 4, 929, 1990) and is another member of the Shaker family. The Kv 1.5 transcript has been detected in pancreatic β cells as described in Philipson, et al., Proc. Natl. Acad. Sci. U.S.A. 88, 53, 1991. […] The ISK transcript has been detected in lymphocytes (Attali et al., J. Biol. Chem,. 267, 8650, 1992), but no evidence of the IKs current has been found in those cells.
(§2) Methods for oocyte isolation and micro-injection were previously described in Goldin, Meth. […] Currents expressed in oocytes were measured using a DAGAN model CA-1 two-electrode voltage clamp. […]

Shaker-H4 = target: T3, Shaker-H4 (Drosophila melanogaster, UniProt P08510); assay: Two-electrode voltage clamp of Xenopus oocytes expressing Shaker-H4; format: cell-based
T3 construct: expressed in transfected cells; host or cells: Xenopus oocytes injected with RNA transcribed in vitro from the cDNA clone
T3 sequence (P08510 whole entry): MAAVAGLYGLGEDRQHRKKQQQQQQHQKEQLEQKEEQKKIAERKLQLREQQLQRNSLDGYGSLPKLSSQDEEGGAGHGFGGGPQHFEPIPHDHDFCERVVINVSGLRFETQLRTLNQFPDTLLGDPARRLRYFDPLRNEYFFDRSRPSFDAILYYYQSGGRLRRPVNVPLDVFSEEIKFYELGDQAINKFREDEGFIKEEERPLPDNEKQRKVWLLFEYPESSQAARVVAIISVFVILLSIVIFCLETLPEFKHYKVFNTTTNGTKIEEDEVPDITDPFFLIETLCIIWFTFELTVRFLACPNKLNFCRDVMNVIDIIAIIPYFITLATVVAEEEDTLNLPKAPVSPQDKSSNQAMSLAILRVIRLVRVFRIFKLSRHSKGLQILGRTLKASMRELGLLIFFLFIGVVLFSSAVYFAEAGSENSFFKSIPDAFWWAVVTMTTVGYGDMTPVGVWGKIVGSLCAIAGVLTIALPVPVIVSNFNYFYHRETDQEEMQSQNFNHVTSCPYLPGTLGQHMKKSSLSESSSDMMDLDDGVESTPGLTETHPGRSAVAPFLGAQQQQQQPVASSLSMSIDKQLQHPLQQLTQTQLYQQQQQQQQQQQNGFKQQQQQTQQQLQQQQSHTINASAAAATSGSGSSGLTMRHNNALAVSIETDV
Procedure: as §1, §2

human T-lymphocytes = conditions: cited from earlier work

T1 sequence (P22001 whole entry): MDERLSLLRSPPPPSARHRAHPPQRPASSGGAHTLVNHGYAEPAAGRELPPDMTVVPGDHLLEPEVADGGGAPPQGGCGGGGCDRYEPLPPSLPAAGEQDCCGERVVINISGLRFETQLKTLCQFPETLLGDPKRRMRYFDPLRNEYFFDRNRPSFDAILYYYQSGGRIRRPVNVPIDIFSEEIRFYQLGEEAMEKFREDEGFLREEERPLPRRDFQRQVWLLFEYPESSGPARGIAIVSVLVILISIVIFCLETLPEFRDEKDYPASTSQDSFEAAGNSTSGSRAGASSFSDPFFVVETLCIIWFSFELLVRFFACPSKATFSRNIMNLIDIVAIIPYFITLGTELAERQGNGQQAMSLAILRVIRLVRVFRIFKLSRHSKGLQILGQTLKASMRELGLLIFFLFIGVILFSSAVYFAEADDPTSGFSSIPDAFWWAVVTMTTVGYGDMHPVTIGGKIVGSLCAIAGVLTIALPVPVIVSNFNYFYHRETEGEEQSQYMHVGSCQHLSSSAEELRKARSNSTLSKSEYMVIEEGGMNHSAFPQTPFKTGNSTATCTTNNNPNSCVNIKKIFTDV

SMILES: CC[C@H](C)[C@H](NC(=O)[C@@H](N)[C@@H](C)O)C(=O)N[C@H](C(=O)N[C@@H](CC(N)=O)C(=O)N[C@H](C(=O)N[C@@H](CCCCN)C(=O)N[C@H]1CSSC[C@@H]2NC(=O)[C@H](CCCCN)NC(=O)[C@H](C)NC(=O)CNC(=O)[C@H](C)NC(=O)[C@H](CO)NC(=O)[C@H](CCC(N)=O)NC(=O)CNC(=O)[C@H](Cc3ccccc3)NC(=O)[C@H](CCC(N)=O)NC(=O)[C@H](C)NC(=O)[C@H](CCCCN)NC(=O)[C@@H]3CSSC[C@@H](C(=O)N[C@@H](Cc4ccc(O)cc4)C(=O)N4CCC[C@H]4C(=O)N[C@@H](Cc4c[nH]cn4)C(=O)O)NC(=O)[C@H](CCCCN)NC(=O)[C@H](CSSC[C@H](NC(=O)[C@H](CCC(N)=O)NC(=O)[C@H](CCCCN)NC(=O)[C@@H]4CCCN4C(=O)[C@H](CO)NC(=O)[C@H]([C@@H](C)O)NC1=O)C(=O)N[C@@H](CC(C)C)C(=O)N1CCC[C@H]1C(=O)N1CCC[C@H]1C(=O)N3)NC(=O)[C@H](CCCCN)NC(=O)CNC(=O)[C@H](CC(N)=O)NC(=O)[C@H](CCSC)NC2=O)C(C)C)[C@@H](C)CC [MgTX, Margatoxin] (HELM PEPTIDE1{T.I.I.N.V.K.C.T.S.P.K.Q.C.L.P.P.C.K.A.Q.F.G.Q.S.A.G.A.K.C.M.N.G.K.C.K.C.Y.P.H}$PEPTIDE1,PEPTIDE1,7:R3-29:R3|PEPTIDE1,PEPTIDE1,13:R3-34:R3|PEPTIDE1,PEPTIDE1,17:R3-36:R3$$$V2.0; N-terminus and C-terminus assumed; bridges inferred)
- Hill coefficient [1]: 2
- IC50 ([1]; isotonic sucrose, pH 8.0, read-out: IC50 for inhibition of [125I]ChTX binding): 0.0014 nM
- Hill coefficient of inhibition of [125I]ChTX binding to brain membranes (Kv 1.3): 1.7
- IC50 (Kv 1.3; read-out: IC50 for inhibition of [125I]ChTX binding to brain membranes): 0.036 nM
- IC50 [2]: ~0.03 nM
- IC50 (Shaker-H4): 100 nM
- effect on interleukin 2 production (human T-lymphocytes): inhibits interleukin 2 production
